Experiment [1] can be described thus: Inhibition of VGLUT.
Experiment [2] is described as follows: Inhibition of VGLUT in rat synaptic vesicles assessed as [3H]glutamate uptake pretreated for 30 mins measured after 10 mins by scintillation spectrophotometer analysis.
Experiment [3] can be described thus: Inhibition of VGLUT in rat synaptic vesicles assessed as [3H]glutamate uptake at 2.5 uM pretreated for 30 mins measured after 10 mins by scintillation spectrophotometer analysis.
Experiment [4] has as its target T1, Vesicular acetylcholine transporter (Rattus norvegicus, UniProt Q62666).
T1 sequence (Q62666 whole entry): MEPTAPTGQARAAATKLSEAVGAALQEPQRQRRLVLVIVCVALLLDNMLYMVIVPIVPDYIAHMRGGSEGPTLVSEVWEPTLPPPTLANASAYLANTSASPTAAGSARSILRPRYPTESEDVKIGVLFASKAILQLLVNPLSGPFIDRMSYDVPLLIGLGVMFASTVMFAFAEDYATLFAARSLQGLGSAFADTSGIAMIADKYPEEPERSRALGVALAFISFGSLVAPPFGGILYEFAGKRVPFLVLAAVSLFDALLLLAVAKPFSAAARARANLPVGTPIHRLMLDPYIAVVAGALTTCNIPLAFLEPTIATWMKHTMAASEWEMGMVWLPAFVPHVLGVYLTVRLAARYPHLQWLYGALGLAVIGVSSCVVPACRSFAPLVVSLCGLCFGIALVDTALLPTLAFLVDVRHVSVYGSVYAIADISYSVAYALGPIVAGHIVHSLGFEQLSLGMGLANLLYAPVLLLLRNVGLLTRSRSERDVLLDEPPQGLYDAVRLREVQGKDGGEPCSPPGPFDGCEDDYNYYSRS
Briefly: Inhibition of VACHT in rat synaptic vesicles assessed as […] 30 mins measured after 10 mins by scintillation spectrophotometer analysis.

The nature of experiment [5]: Inhibition of VMAT in rat synaptic vesicles assessed as [3H]HT uptake pretreated for 30 mins measured after 10 mins by scintillation spectrophotometer analysis.

Each structure is given as a SMILES string.

One may read the IC50 as the concentration at which inhibition is half-maximal. In general, Ki refers to a dissociation constant, usually derived from enzyme kinetics or from competition with a known ligand. High values mean a looser hold on the target, low ones a stronger hold on the target.

In the case of `N[C@]1(C(=O)O)CC[C@@H](C(=O)O)C1`, the IC50 in experiment [1] was found to be 230000 nM.
In the case of `O=C(O)c1c(Cl)c(Cl)c(Cl)c(Cl)c1-c1c2cc(Br)c(=O)c(Br)c-2oc2c(Br)c(O)c(Br)cc12`, the IC50 in experiment [2] was 51 nM.
The same measure, in the same setting: the value for `O=C(O)c1cc(Cl)c(Cl)cc1-c1c2cc(I)c(=O)c(I)c-2oc2c(I)c(O)c(I)cc12` was 41 nM; that for `O=C(O)c1c(O)cccc1-c1c2cc(I)c(=O)c(I)c-2oc2c(I)c(O)c(I)cc12` was 7800 nM; that for `COc1c(I)cc2c(c1I)Oc1c(cc(I)c(OC)c1I)C21OC(=O)c2c(Cl)c(Cl)c(Cl)c(Cl)c21` was 8820 nM.
Still for that read-out and setting: the value for `O=C(O)c1c(Cl)c(Cl)c(Cl)c(Cl)c1-c1c2ccc(=O)cc-2oc2cc(O)ccc12` was 15000 nM; that for `O=C(O)c1ccccc1-c1c2cc(Cl)c(=O)cc-2oc2cc(O)c(Cl)cc12` was greater than 64000 nM.
On to `O=C(O)c1c(Cl)c(Cl)c(Cl)c(Cl)c1-c1c2ccc(=O)cc-2oc2cc(O)c3ccccc3c12`, for which, in experiment [3], the IC50 result was “Not Active”.
In the case of `O=C(O)c1c(Cl)c(Cl)c(Cl)c(Cl)c1-c1c2c3ccccc3c(=O)cc-2oc2cc(O)c3ccccc3c12`, the IC50 entry in experiment [3] is given as “Not Active”.
As for `O=C(O)c1c(Cl)ccc(Cl)c1-c1c2cc(I)c(=O)c(I)c-2oc2c(I)c(O)c(I)cc12`, in experiment [2], the IC50 was determined as 27 nM.
The same measure, in the same setting: the value for `COC(=O)c1c(Cl)c(Cl)c(Cl)c(Cl)c1-c1c2cc(I)c(=O)c(I)c-2oc2c(I)c(O)c(I)cc12` was 44 nM; that for `O=C(OCc1ccccc1)c1c(Cl)c(Cl)c(Cl)c(Cl)c1-c1c2cc(I)c(=O)c(I)c-2oc2c(I)c(O)c(I)cc12` was 65 nM.
As for `CCOC(=O)c1ccccc1-c1c2cc(Br)c(=O)c(Br)c-2oc2c(Br)c(O)c(Br)cc12`, the IC50 in experiment [2] is 65 nM.
Consider `O=C(O)c1c(Br)c(Br)c(Br)c(Br)c1-c1c2cc(I)c(=O)c(I)c-2oc2c(I)c(O)c(I)cc12`, for which the IC50 in experiment [2] is 74 nM.
As to `O=C(O)c1c(F)c(F)c(F)c(F)c1-c1c2cc(I)c(=O)c(I)c-2oc2c(I)c(O)c(I)cc12`, in experiment [2], the IC50 came to 102 nM.
On the same count and under the same terms, the value for `COC(=O)c1ccccc1-c1c2cc(Br)c(=O)c(Br)c-2oc2c(Br)c(O)c(Br)cc12` was 117 nM.
Still for that read-out and setting: as for `CCOC(=O)c1c(Cl)c(Cl)c(Cl)c(Cl)c1-c1c2cc(I)c(=O)c(I)c-2oc2c(I)c(O)c(I)cc12`, the figure is 192 nM; as for `COC(=O)c1ccccc1-c1c2cc([N+](=O)[O-])c(=O)c(Br)c-2oc2c(Br)c(O)c([N+](=O)[O-])cc12`, 238 nM.
As for `Cc1c2oc3c(C)c(O)c(I)cc3c(-c3ccccc3C(=O)O)c-2cc(I)c1=O`, the IC50 in experiment [2] is 531 nM.
On the same count and under the same terms, as for `N#CSc1ccc(C(=O)O)c(-c2c3cc(I)c(=O)c(I)c-3oc3c(I)c(O)c(I)cc23)c1`, the figure is 689 nM.
Take `O=C(O)c1ccccc1-c1c2ccc(=O)c(I)c-2oc2c(I)c(O)ccc12`: the IC50 in experiment [2] is 1060 nM.
Still for that read-out and setting: the value for `O=C(O)CCc1c2cc(I)c(=O)c(I)c-2oc2c(I)c(O)c(I)cc12` was 2200 nM; that for `O=C(O)c1cccc([N+](=O)[O-])c1-c1c2cc(I)c(=O)c(I)c-2oc2c(I)c(O)c(I)cc12` was 6690 nM; that for `O=C(O)c1ccccc1-c1c2cc(Br)c(=O)c(Br)c-2oc2c(Br)c(O)c(Br)cc12` was 406 nM.
On the same count and under the same terms, the value for `O=C(O)c1ccccc1-c1c2cc(I)c(=O)c(I)c-2oc2c(I)c(O)c(I)cc12` was 36 nM; that for `O=c1c(I)cc2c(-c3cc(Cl)c(Cl)c(Cl)c3Cl)c3cc(I)c(O)c(I)c3oc-2c1I` [DESCARBOXY RB] was 68 nM; that for `O=C(O)c1ccccc1-c1c2cc([N+](=O)[O-])c(=O)c(Br)c-2oc2c(Br)c(O)c([N+](=O)[O-])cc12` [EOSIN B] was 2440 nM.
`O=C1OC2(c3ccc(O)cc3Oc3cc(O)ccc32)c2ccccc21` [FLUORESCEIN]: the IC50 entry in experiment [3] was “Not Active”.
Turning to `O=c1ccc2c(-c3ccccc3S(=O)(=O)O)c3ccc(O)c(O)c3oc-2c1O` [PYROGALLOL RED], the IC50 in experiment [2] was greater than 32000 nM.
On to `O=C(O)c1cc(C(=O)O)c2cc(-c3ccc(-c4ccccc4)cc3)cc(O)c2n1` [QUINOLEIN DICARBOXYLIC ACID], for which, in experiment [1], the IC50 turned out to be 40000 nM.
For `O=C(O)c1c(Cl)c(Cl)c(Cl)c(Cl)c1-c1c2cc(I)c(=O)c(I)c-2oc2c(I)c(O)c(I)cc12` [ROSE BENGAL SODIUM], the IC50 in experiment [4] stood at 9700 nM; in experiment [5] it was 64 nM; in experiment [2] it was 19 nM. The compound further gave a Ki in experiment [1] of 19 nM.

(Values after ChEMBL document CHEMBL1250509, “Rose Bengal analogs and vesicular glutamate transporters (VGLUTs)” (Bioorg Med Chem, 2010).)
